This is an account of results in article PMC6934184, “Selective DNA-PKcs inhibition extends the therapeutic index of localized radiotherapy and chemotherapy” (The Journal of Clinical Investigation, 2019).

This test deals with T1, MAP4K1 (HPK1) (Homo sapiens, UniProt Q92918).
T1 construct: purchased Thermo Fisher Scientific (Life Technologies) SelectScreen
Put plainly: SelectScreen LanthaScreen. It is filed as binding. The settings on record: read-out: % displacement. The essentials:
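Percent values come from Thermo SelectScreen profiling of NU5455, combining activity and binding assays. CSF1R was run in Z'LYTE format at Km app ATP, and CAMK1 in Adapta format with ATP listed at 10.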
(In TR-FRET formats the signal depends on donor and acceptor labels being close together.)

T1 sequence (Q92918 whole entry): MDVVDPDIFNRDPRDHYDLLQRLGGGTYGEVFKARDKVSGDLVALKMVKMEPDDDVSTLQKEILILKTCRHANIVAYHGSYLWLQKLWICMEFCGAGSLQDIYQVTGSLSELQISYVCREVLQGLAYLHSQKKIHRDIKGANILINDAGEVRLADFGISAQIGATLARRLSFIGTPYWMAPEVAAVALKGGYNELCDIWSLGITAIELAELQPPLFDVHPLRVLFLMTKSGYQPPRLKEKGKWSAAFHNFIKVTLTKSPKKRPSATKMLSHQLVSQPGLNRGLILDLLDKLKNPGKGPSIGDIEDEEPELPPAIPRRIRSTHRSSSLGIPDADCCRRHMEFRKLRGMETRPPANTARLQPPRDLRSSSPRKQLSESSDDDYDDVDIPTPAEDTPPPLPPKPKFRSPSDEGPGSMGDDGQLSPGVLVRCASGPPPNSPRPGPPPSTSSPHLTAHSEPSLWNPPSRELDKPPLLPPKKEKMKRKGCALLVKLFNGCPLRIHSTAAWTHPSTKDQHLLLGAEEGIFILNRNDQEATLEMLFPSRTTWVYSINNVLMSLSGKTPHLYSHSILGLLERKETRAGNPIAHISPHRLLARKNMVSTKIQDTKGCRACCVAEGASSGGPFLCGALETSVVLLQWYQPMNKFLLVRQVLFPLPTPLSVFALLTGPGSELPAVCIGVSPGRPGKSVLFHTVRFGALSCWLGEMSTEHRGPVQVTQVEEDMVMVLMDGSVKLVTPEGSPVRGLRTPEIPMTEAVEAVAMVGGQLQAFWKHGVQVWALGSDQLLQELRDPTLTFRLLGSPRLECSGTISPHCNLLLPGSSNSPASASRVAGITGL

Turning to `CN(C(=O)CN1CCOCC1)c1ccc2sc3c(-c4cccc5c(=O)cc(N6CC7CCC(C6)O7)oc45)cccc3c2c1` [NU5455], the inhibition at 1 µM turned out to be 1.6%.
